Assay results: patent US20180177184A1, “ANTIMICROBIAL, INSECTICIDAL AND ACARICIDAL SYSTEM” (UNIVERSIDAD POLITECNICA DE VALENCIA, priority 2015, published 2018)

System: Listeria innocua
Experiment: Bacterial viability of Listeria innocua, 2 h incubation in tryptone soy broth, CFU counting
Type: cell-based
Conditions: L. innocua, about 10^6 CFU/ml, 37° C., concentration of vanillin
Protocol: To that end, in vitro assays were carried out to determine the bacterial viability of Listeria innocua compared to mesoporous particles functionalized with vanillin as well as free vanillin. […] To that end, different suspensions of particles or free vanillin in culture broth (tryptone soy broth) were prepared, and the microbial inoculum was added thereto to obtain an initial population of about 10^6 CFU/ml. Said suspensions were incubated under orbital stirring (150 rpm) at 37° C. for 2 h. After said period, the serial dilutions were seeded in selective medium and incubated for 48 h, with subsequent counting of the colony forming units (CFUs) and calculation of the percentage of inhibition.

COc1cc(C=O)ccc1O [free vanillin, vanillin]
concentration producing complete inhibition of the microorganism: 4 mg/mL
